Assay results taken from patent US12304881B2, “Trientine tetrahydrochloride and a method of preparation and a pharmaceutical composition thereof” (Yu-Jet Co., Ltd., priority 2022, dated 2025).
Counter-ions that a name gives are not always drawn.

Legend:
[1] = as disclosed in CN102924289B; cited from earlier work

SMILES | stability, compared between hydrochloride salts [1] | stability (impurity by TLC) in words
NCCNCCNCCN [TETA·2HCl, trientine dihydrochloride] | worse than that of TETA·4HCl | 
NCCNCCNCCN [TETA·4HCl Form N, trientine tetrahydrochloride] |  | good enough
